{"source": "PubChem BioAssay AID651969", "about": "(The Scripps Research Institute Molecular Screening Center, 2013)", "system": "StAR promoter luciferase reporter cells, luminescence counterscreen", "assay": "nonselective StAR promoter luciferase inhibitors – cell-based, luminescence, luciferase reporter, counter-screen for LRH-1 inverse agonist project, dose response (AID 651969)", "note": "Active and inactive are the calls of the source. No rule for the calls is given here."}
{"compound": "COc1ccc(NC(=O)COC(=O)c2cc(S(=O)(=O)N3CCCC3)ccc2O)cc1", "values": [{"measurement": "IC50", "value": "> 35.9 µM (inactive)"}]}
